pIC50: −log10 of the molar value.
Key:
[1] = target: Coagulation factor X (Homo sapiens, UniProt P00742); test: Inhibitory concentration against human Coagulation factor X
[2] = target: Prothrombin (Homo sapiens, UniProt P00734); test: Inhibitory concentration against Coagulation factor II
[3] = species: Mus musculus; test: Concentration required to produce 50% inhibition of tissue factor-induced platelet aggregation in disseminated intravascular coagulation (DIC) mouse model; format: functional

Coagulation factor X, sequence (P00742 41-179 limits assumed): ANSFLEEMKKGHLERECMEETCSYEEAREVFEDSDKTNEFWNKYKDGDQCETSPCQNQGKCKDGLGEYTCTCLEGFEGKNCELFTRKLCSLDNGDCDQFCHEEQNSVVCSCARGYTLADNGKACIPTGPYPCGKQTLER
Coagulation factor X, sequence (P00742 235-488 limits assumed): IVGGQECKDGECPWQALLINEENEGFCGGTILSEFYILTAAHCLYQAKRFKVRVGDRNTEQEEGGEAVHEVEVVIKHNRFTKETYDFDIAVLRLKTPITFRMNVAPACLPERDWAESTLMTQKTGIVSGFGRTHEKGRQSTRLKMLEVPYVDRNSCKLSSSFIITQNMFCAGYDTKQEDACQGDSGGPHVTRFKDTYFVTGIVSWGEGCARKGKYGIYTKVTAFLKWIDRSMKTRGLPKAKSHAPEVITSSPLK

## CC(=N)N1CCC(Oc2ccc(N(Cc3nc4cc(C(=N)N)ccc4n3CC(=O)NC(C)(C)c3ccccc3)C(=O)c3ccc(C(=O)O)cc3)cc2)CC1
[1]
  pIC50: 6.70
[2]
  pIC50: < 5.00

## CC(=N)N1CC[C@H](Oc2ccc(CCc3cc4cc(C(=N)N)ccc4o3)cc2)C1
[1]
  pIC50: 6.22
[2]
  pIC50: < 5.00

## CC(=N)N1CCC(Oc2ccc(N(Cc3nc4cc(C(=N)N)ccc4n3CC(=O)NC3CCCCC3)C(=O)c3ccc(C(=O)O)cc3)cc2)CC1.Cl.Cl
[3]
  ED50: 0.2 mg/kg

## CC(=N)N1CCC(Oc2ccc(OCc3nc4cc(C(=N)N)ccc4n3CC(=O)NC(C)c3ccccc3)cc2)CC1 (centres undefined)
[1]
  pIC50: 7.52
[2]
  pIC50: < 5.00

## CC(=N)N1CCC(Oc2ccc(N(Cc3nc4cc(C(=N)N)ccc4n3CC(=O)NCc3ccc(Cl)c(Cl)c3)C(=O)c3ccc(C(=O)O)cc3)cc2)CC1.Cl.Cl
[1]
  pIC50: 8.22
[2]
  pIC50: < 5.00
[3]
  ED50: 0.7 mg/kg

## CC(=N)N1CCC(Oc2ccc(N(Cc3nc4cc(C(=N)N)ccc4n3CC(=O)Nc3ccc(Cl)c(Cl)c3)C(=O)c3ccc(C(=O)O)cc3)cc2)CC1.Cl.Cl
[1]
  pIC50: 6.70
[2]
  pIC50: < 5.00
[3]
  ED50: 0.7 mg/kg

## CC(=N)N1CCC(Oc2ccc(OCc3nc4cc(C(=N)N)ccc4n3CC(=O)NCC3CCCCC3)cc2)CC1
[1]
  pIC50: 6.52
[2]
  pIC50: < 5.00

## CC(=N)N1CCC(Oc2ccc(OCc3nc4cc(C(=N)N)ccc4n3CC(=O)NCCCc3ccccc3)cc2)CC1
[1]
  pIC50: 6.70
[2]
  pIC50: < 5.00

## N=C(N)c1ccc2c(c1)nc(CN(C(=O)c1ccc(C(=O)O)cc1)c1ccc(OC3CCNC3)cc1)n2CC(=O)NC1CCCCC1 (centres undefined)
[1]
  pIC50: 6.52
[2]
  pIC50: < 5.00

## CC(=N)N1CCC(Oc2ccc(OCc3nc4cc(C(=N)N)ccc4n3CC(=O)NCc3ccc(Cl)c(Cl)c3)cc2)CC1
[1]
  pIC50: 7.52
[2]
  pIC50: < 5.00

## N=C(N)c1ccc2c(c1)nc(CN(C(=O)c1ccc(C(=O)O)cc1)c1ccc(OC3CCN(C(=N)NCc4ccccc4)CC3)cc1)n2CC(=O)NC1CCCCC1
[2]
  pIC50: < 5.00

## CC(=N)N1CCC(Oc2ccc(N(Cc3nc4cc(C(=N)N)ccc4n3CC(=O)NC3CCCCC3)C(=O)c3ccc(C(=O)O)cc3)cc2)C1 (centres undefined)
[1]
  pIC50: 7.00
[2]
  pIC50: < 5.00

## CC(=N)N1CCC(Oc2ccc(OCc3nc4cc(C(=N)N)ccc4n3CC(=O)Nc3ccc(Cl)c(Cl)c3)cc2)CC1
[1]
  pIC50: 7.22
[2]
  pIC50: < 5.00

## CC(=N)N1CCC(Oc2ccc(OCc3nc4cc(C(=N)N)ccc4n3CC(=O)N3CCCCC3)cc2)CC1
[1]
  pIC50: 5.52
[2]
  pIC50: < 5.00

## CC(=N)N1CCC(Oc2ccc(OCc3nc4cc(C(=N)N)ccc4n3CC(=O)NC3CCCCC3)cc2)CC1
[1]
  pIC50: 7.40
[2]
  pIC50: < 5.00

## CCn1c(COc2ccc(OC3CCN(C(C)=N)CC3)cc2)nc2cc(C(=N)N)ccc21
[1]
  pIC50: 6.40
[2]
  pIC50: < 5.00

## N=C(N)c1ccc(Oc2ccc(N(Cc3nc4cc(C(=N)N)ccc4n3CC(=O)NC3CCCCC3)C(=O)c3ccc(C(=O)O)cc3)cc2)cc1
[1]
  pIC50: 5.70
[2]
  pIC50: < 5.00

## CC(=N)N1CCC(Oc2ccc(OCc3nc4cc(C(=N)N)ccc4n3CC(=O)NCc3ccccc3)cc2)CC1
[1]
  pIC50: 7.00
[2]
  pIC50: < 5.00

## CC(=N)N1CCC(Oc2ccc(OCc3nc4cc(C(=N)N)ccc4n3CC(=O)Nc3ccccc3)cc2)CC1
[1]
  pIC50: 7.00
[2]
  pIC50: < 5.00

## CC(=N)N1CC[C@H](Oc2ccc([C@H](Cc3ccc4ccc(C(=N)N)cc4c3)C(=O)O)cc2)C1.Cl [DX-9065A HYDROCHLORIDE HYDRATE]
[3]
  ED50: 0.5 mg/kg
